Patent US10357533B2, “Drug for the effective control of acute and or chronic pain and a method for its administration” (PVP LABS PTE. LTD., priority 2016, dated 2019)
Where a SMILES comes first, the peptide text is derived from it. [ ]: non-standard residue; d: D form.

Experiments:
Format in all cases: in vivo
mice [1] = assay: Tail flick test in mice, dose-dependent analgesic effect
Method: (§1) This stage involved selecting the effective doses of peptide compound in the tail flick test in mice after a single subcutaneous administration of the substance at doses of 0.01, 0.05, 0.1, 0.5, 0.7, 1 and 5 mg/kg. Tail flick method is based on a spinal flexion reflex in response to a progressively increasing effect of thermal radiation on the surface of skin. A pain stimulus was applied to the tail locally, by the action of thermal radiation, using a TSE Systems analgesiometer (Germany). Stimulus intensity was set, corresponding to an increase in temperature from 30° C. to 60° C. over 13 seconds. The tail flick latency (TFL) of 13 seconds was used as the maximum allowable time of stimulation. The mice in test groups were given peptide compound, and control group mice were given the solvent (water for injections) by subcutaneous. Tail flick latency was evaluated 40 minutes after the administration of the study substance or solvent. The analysis of experimental results involved calculating the maximum possible effect (MPE).

rats = assay: Hot plate test in rats; conditions: for HPL, s (Mean ± SEM): hot plate 52° C.
Method: The “Hot Plate” test is based on the reflex that rat licking its' feet when the animal comes in contact with a hot surface. The device is a metal surface with a diameter of 30 cm whose temperature is controlled by software. The site is enclosed by a transparent fence with a height of 40 cm. The temperature of the metal pad was set at exactly 52° C. When placing the animal on the surface, you measure the time until the moment when the animal licks its' foot. When analgesics are administered, the time before the rat licks its' feet increases. The licking latency (HPL) of 40 seconds was used as the maximum allowable time of stimulation. The study was conducted on male rats weighing 160-180 g, 6 animals per dose.

mice [2] = assay: Duration of analgesic effect in the tail flick test in mice
Method: as §1
The duration of analgesic effect of peptide compound was evaluated in the tail flick test in mice as described above.
Peptide compound was administered to mice subcutaneously at a doses of 0.5 mg/kg, 1.5 mg/kg and 4.5 mg/kg. The control group of animals was given a subcutaneous injection of the vehicle (water for injections). TFL test was evaluated in mice that received peptide compound at 30 minutes and at 1, 2, 4, 6, and 8 hours after dosing.

mice [3] = assay: Antinociceptive tolerance and withdrawal syndrome, tail flick test in mice; conditions: for TFL, s, Baseline values (Mean ± SEM): before administering
Method: The tail flick test was the main method of evaluating peptide compound antinociceptive tolerance and withdrawal syndrome. The test involved evaluating tail flick latency (TFLtest). Baseline tail flick latency TFLbase was evaluated before administering the substances. The test was performed in outbred male mice.
The animals were randomized into 4 groups of 10 animals in each group: Group 1: control—the animals were administered subcutaneous injections of water for injections for 14 days; Group 2: single peptide compound administration group—the animals were administered water for injections for 13 days and peptide compound at a dose of 0.5 mg/kg on day 14 by subcutaneous injection; Group 3: chronic peptide compound administration group—the animals were administered with peptide compound at a dose of 0.5 mg/kg by subcutaneous injection for 14 days; Group 4: withdrawal group—the animals were administered with peptide compound at a dose of 0.5 mg/kg by subcutaneous injection for 14 days, withdrawal test was evaluated after 48 hours.
The last injection of the drug/water to groups 1-3 was administered 40 minutes before the test.

mice [4] = assay: Open field test and toxicity of high doses in mice; conditions: intraperitoneally
Method: Testing of the influence of the injectable substance based on tetrapeptide (as in example 2) H-Tyr-D-Arg-Phe-Gly-NH2 on the behavior of animals, was provided in the study of the toxicity of high doses of the “open field” test and maintaining balance on a horizontal rod.
The aim of the experiment was to identify an effective dose of the substance that affects the behavior of the animals. It was tested on several animals after administration of different doses of peptide compound.
The experimental and control groups of male mice were taken from the same batch, about the same weight (22-24 g).
The substance was injected intraperitoneally in identical weight amounts to laboratory animals in the experimental and control groups, respectively. […] The measurement was started 15 minutes after injection.
Several groups were organized: without the introduction of the substance, and with the introduction of a solution of morphine or peptide. After 15 from injection we conducted measurement in the following order:
Each animal tested was introduced into a round, not brightly lit arena. The surface is divided into square blocks of 10 cm each. We count locomotor activity of the mouse when it crossed the square. The movement of the mouse in the center of the arena and on the periphery, are recorded separately. We registered the number of times the mouse stands on its hind legs “stand” and the number of times the mouse looks into a “burrow”—ie. holes in the floor. Observations were done visually and were simultaneously entered into a computer using a keyboard (semi-automatic registration).

[5] = 0.05 mg/kg subcutaneous, 40 minutes
[6] = 0.1 mg/kg subcutaneous, 40 minutes
[7] = 0.5 mg/kg subcutaneous, 40 minutes
[8] = 0.7 mg/kg subcutaneous, 40 minutes
[9] = 1 mg/kg subcutaneous, 40 minutes
[10] = 5 mg/kg subcutaneous, 40 minutes
[11] = 0.5 mg/kg subcutaneous for 14 days, withdrawal test after 48 hours

## N=C(N)NCCC[C@@H](NC(=O)[C@@H](N)Cc1ccc(O)cc1)C(=O)N[C@@H](Cc1ccccc1)C(=O)NCC(N)=O [Peptide compound, H-Tyr-D-Arg-Phe-Gly-NH2] (H-Y[dR]FG-NH2)
Mice [1]; 0.01 mg/kg subcutaneous, 40 minutes
  Proportion of the maximum possible effect (MPE), %: 18.7%
Mice [1]; 0.01 mg/kg subcutaneous, 40 minutes after administration
  TFL, s (Mean ± SEM): 5.89 ± 0.19 s
Mice [1]; [5]
  Proportion of the maximum possible effect (MPE), %: 42.5%
  TFL, s (Mean ± SEM): 7.97 ± 0.78 s
Mice [1]; [6]
  Proportion of the maximum possible effect (MPE), %: 47.0%
  TFL, s (Mean ± SEM): 8.36 ± 0.68 s
Mice [1]; [7]
  Proportion of the maximum possible effect (MPE), %: 55.7%
  TFL, s (Mean ± SEM): 9.12 ± 0.92 s
Mice [1]; [8]
  Proportion of the maximum possible effect (MPE), %: 57.5%
  TFL, s (Mean ± SEM): 10.15 ± 0.74 s
Mice [1]; [9]
  Proportion of the maximum possible effect (MPE), %: 94.6%
  TFL, s (Mean ± SEM): 12.53 ± 0.24 s
Mice [1]; [10]
  Proportion of the maximum possible effect (MPE), %: 100%
  TFL, s (Mean ± SEM): 13.00 ± 0 s
Mice [1]; tail flick
  higher level of activity in comparison with morphine: 10-15 times
Mice [1]; tail flick, peptide compound 0.1 mg/kg dose
  dose of morphine with close activity: ~4 mg/kg
Mice [1]; tail flick, peptide compound 0.5 mg/kg dose
  dose of morphine with close activity: 7 to 8 mg/kg
Mice [1]; tail flick, subcutaneous
  dose at which the effect of full analgesia was observed: 1 mg/kg
rats; 0.1 mg/kg subcutaneous
  Proportion of the maximum possible effect (MPE), %: 38.2%
  HPL, s (Mean ± SEM): 26.01 ± 8.8 s
rats; 5 mg/kg subcutaneous
  Proportion of the maximum possible effect (MPE), %: 98.3%
  HPL, s (Mean ± SEM): 39.33 ± 1.63 s
rats; hot plate
  dose at which the effect of full analgesia was observed: 5 mg/kg
  higher level of activity in comparison with morphine: ~10 times
rats; hot plate, proposed drug 0.1 mg/kg
  dose of morphine with corresponding analgesic efficacy: 5 mg/kg
Mice [2]; 0.5 mg/kg subcutaneous, 0.5 hours
  MPE, % (Mean ± SEM): 45.6 ± 13.31%
Mice [2]; 0.5 mg/kg subcutaneous, 1 hours
  MPE, % (Mean ± SEM): 49.9 ± 11.54%
Mice [2]; 0.5 mg/kg subcutaneous, 2 hours
  MPE, % (Mean ± SEM): 15.5 ± 4.78%
Mice [2]; 0.5 mg/kg subcutaneous, 4 hours
  MPE, % (Mean ± SEM): 6.3 ± 2.43%
Mice [2]; 0.5 mg/kg subcutaneous, 6 hours
  MPE, % (Mean ± SEM): 6.3 ± 2.94%
Mice [2]; 0.5 mg/kg subcutaneous, 8 hours
  MPE, % (Mean ± SEM): −2.6 ± 3.18%
Mice [2]; 1.5 mg/kg subcutaneous, 0.5 hours
  MPE, % (Mean ± SEM): 97.2 ± 2.78%
Mice [2]; 1.5 mg/kg subcutaneous, 1 hours
  MPE, % (Mean ± SEM): 62.7 ± 14.4%
Mice [2]; 1.5 mg/kg subcutaneous, 2 hours
  MPE, % (Mean ± SEM): 33.4 ± 4.85%
Mice [2]; 1.5 mg/kg subcutaneous, 4 hours
  MPE, % (Mean ± SEM): 25.6 ± 11.69%
Mice [2]; 1.5 mg/kg subcutaneous, 6 hours
  MPE, % (Mean ± SEM): 4.6 ± 7.8%
Mice [2]; 1.5 mg/kg subcutaneous, 8 hours
  MPE, % (Mean ± SEM): 5.3 ± 3.46%
Mice [2]; 4.5 mg/kg subcutaneous, 0.5 hours
  MPE, % (Mean ± SEM): 100.0 ± 0.00%
Mice [2]; 4.5 mg/kg subcutaneous, 1 hours
  MPE, % (Mean ± SEM): 100.0 ± 0.00%
Mice [2]; 4.5 mg/kg subcutaneous, 2 hours
  MPE, % (Mean ± SEM): 100.0 ± 0.00%
Mice [2]; 4.5 mg/kg subcutaneous, 4 hours
  MPE, % (Mean ± SEM): 49.9 ± 10.21%
Mice [2]; 4.5 mg/kg subcutaneous, 6 hours
  MPE, % (Mean ± SEM): 6.5 ± 5.94%
Mice [2]; 4.5 mg/kg subcutaneous, 8 hours
  MPE, % (Mean ± SEM): 2.6 ± 4.0%
Mice [2]; after dosing with 1.5 mg/kg and 4.5 mg/kg
  maximum duration of the analgesic effect: 4 h
Mice [3]; 0.5 mg/kg subcutaneous chronic dosing for 14 days
  MPE, % (Mean ± SEM): 50.5 ± 13.92 %
Mice [3]; 0.5 mg/kg subcutaneous chronic dosing for 14 days, 40 minutes before the test
  TFL, s, After dosing (Mean ± SEM): 8.6 ± 1.25 s
Mice [3]; [11]
  MPE, % (Mean ± SEM): 1.3 ± 3.72%
  TFL, s, After dosing (Mean ± SEM): 4.8 ± 0.36 s
Mice [3]; 0.5 mg/kg subcutaneous single dose on day 14
  MPE, % (Mean ± SEM): 43.3 ± 11.19 %
Mice [3]; 0.5 mg/kg subcutaneous single dose on day 14, 40 minutes before the test
  TFL, s, After dosing (Mean ± SEM): 8.0 ± 1.03 s
Mice [3]; 0.5 mg/kg subcutaneously, single dosing or chronic treatment
  tolerance or withdrawal syndrome: lack of tolerance or withdrawal syndrome
Mice [3]; group 0.5 mg/kg chronic dosing
  TFL, s, Baseline values (Mean ± SEM): 4.6 ± 0.26 s
Mice [3]; group 0.5 mg/kg single dose
  TFL, s, Baseline values (Mean ± SEM): 4.5 ± 0.36 s
Mice [3]; group 0.5 mg/kg withdrawal
  TFL, s, Baseline values (Mean ± SEM): 4.7 ± 0.24 s
Mice [4]
  doses that do not result in toxic effects: up to 200 EC50
Mice [4]; dose of 100 mg/kg
  toxic effects: the animals continued to move actively, breathing was not inhibited, and heart beats were stable
Mice [4]; open field, dose of 20-100 mg/kg, 15 minutes after injection
  reduced activity moving around the field: 20-25%
Mice [4]; open field, large doses
  reduction in exploratory activity ("stand-burrow"): 20-30%
